Laboratory results published in patent US20210059961A1, “CANNABINOID DOSING REGIME FOR ACNE” (priority 2018, published 2021).

Columns and labels:
[1] = tested on: anandamide; conditions: in vitro; cited from earlier work
[2] = tested on: immortalized human sebocytes; conditions: cited from earlier work
[3] = biological target: human vanilloid receptor type 1 (VR1) (Homo sapiens, UniProt Q8NER1); conditions: in vitro; cited from earlier work
[4] = Skin permeation of CBD, Franz-type diffusion cell; format: in vitro ADME
Description: Dermatomed skin from a single donor was mounted in a Franz-type diffusion cell (0.55 cm^2 receptor fluid exposure surface area) and dosed with 5 ul of 2-[3-methyl-6-(1-methylethenyl)-2-cyclohexen-1-yl]-5-pentyl-1,3-benzenediol (CBD), BTX 1503 5% Solution, formulated in an mixture of a volatile solvent (hexylmethyldisiloxane/polymethylsiloxane—93% w/w), and residual solvent (arlamol E—2% w/w) at a concentration of 5.0% (w/w; 35.5 mg/ml). Following dosing, receptor phase samples were collected at 4, 10, 24 and 48 hours; after which the study was terminated.
The residual formulation was removed by tape stripping and the epidermis and dermis separated by blunt dissection. The levels of CBD in the epidermis, dermis, and receptor fluid samples were then analyzed using a bioanalytical method with LC-MS/MS detection.

[5] = tested on: cardiac inflammation; conditions: injected into rats; cited from earlier work
[6] = Open-label study in patients with acne vulgaris: study drug plasma levels; format: in vivo, human
From the text: Eligible subjects were enrolled within 14 days after the Screening Visit. Assessments for safety (CBC, chemistry, urinalysis, and vital signs) were obtained at the Baseline Visit (Day 1). If the Screening and Baseline Visits were not conducted on the same day, a UPT for WOCBP, lesion counts on the face, an Investigator's Global Assessment (IGA) for facial acne and a UDS were repeated. Baseline photographs of the face and a blood sample for Baseline study drug plasma levels were obtained. […] Cutaneous tolerability assessments were conducted at one hour after the first application. […]
Safety was the primary outcome measure. The safety outcomes were measured through assessment of: • AEs monitored from time of consent through the end of study. • Cutaneous tolerability (erythema, scaling, dryness, burning/stinging, and irritant/allergic contact dermatitis) collected at Baseline, Day 14, Day 28, and Day 35 and graded using the following scale: 0, None; 1, Slight; 2, Moderate; 3, Severe. • Vital signs (temperature, blood pressure, and pulse) obtained at Baseline, Day 14, Day 28 and Day 35. • Complete blood count (CBC), chemistry, and urinalysis at Baseline and at Day 28. Blood levels of study drug will be measured at Baseline and prior to dosing (trough level) on Day 14, Day 28, and Day 35. […]

[7] = Healthy volunteer study of single and multiple-dose BTX 1503 5% Solution (BTX.2017.001): pharmacokinetics, safety; format: in vivo, human; conditions: for mean CBD trough level Day 15: multiple dose phase
Description: The pharmacokinetics (PK) of single and multiple-dose administration of BTX 1503 5% Solution were evaluated in a healthy volunteer study. In this study, BTX 1503 5% Solution was applied as a single dose either QD or BID (12 hrs apart) on Day 1 followed by a 6-day washout period, then either QD or BID for 14 days (Day 8 to Day 21). Five subjects were enrolled in each cohort and doses were escalated for each sequential cohort enrolled with the following doses. • Cohort 1: 37.5 mg CBD/day or 0.066 mg/cm^2/day^a applied as 1 mL of BTX 1503 5% (w/w) QD • Cohort 2: 75 mg CBD/day or 0.133 mg/cm^2/day applied as 1 mL BTX 1503 5% (w/w) BID • Cohort 3: 112.5 mg CBD/day or 0.199 mg/cm^2/day applied as 3 mL of BTX 1503 5% (w/w) QD • Cohort 4: 225 mg CBD/day or 0.398 mg/cm^2/day applied as 3 mL of BTX 1503 5% (w/w) BID Area of application assumed to be 565 cm^2 (i.e., on the face), which is reported by the European Union Scientific Committee on Consumer Safety (SCCS) to be half of the surface area for a female head (SCCS Notes of Guidance for the Testing of Cosmetic Substances and Their Safety Evaluation, 8th edition, 2012; Table 2).
Blood samples were taken for PK assessments on Day 1 (Baseline) at pre-dose (15 mins before dosing), 30, 60 and 90 mins and 2, 2.5, 3, 4, 6, 8 and 12 hrs, and 24 hrs after the first single dose. For participants that received BID dosing, samples were also taken at 30, 60 and 90 mins and 2, 2.5, 3, 4, 6, and 8 hrs after the second dose on Day 1.
During the multiple dose (14-day) phase, trough levels were obtained before the morning application on Day 15. On Day 21, blood samples were taken for PK assessments at pre-dose (15 mins before dosing), 30, 60 and 90 mins and 2, 2.5, 3, 4, 6, 8 and 12 hrs, 24 hrs and 48 hrs after the morning dose. For participants that received BID dosing, samples were also be taken at 30, 60 and 90 mins and 2, 2.5, 3, 4, 6, and 8 hrs after the second dose on Day 21. A sample was obtained on Day 23, 48 hrs after the last morning dose. […]

[8] = tested on: airway obstruction; conditions: intravenous, sensitized guinea-pigs; cited from earlier work
[9] = 5 ul of 5.0% w/w solution, 48-hour exposure

Sequence of human vanilloid receptor type 1 (VR1) (Q8NER1 whole entry, the tested form may be a part): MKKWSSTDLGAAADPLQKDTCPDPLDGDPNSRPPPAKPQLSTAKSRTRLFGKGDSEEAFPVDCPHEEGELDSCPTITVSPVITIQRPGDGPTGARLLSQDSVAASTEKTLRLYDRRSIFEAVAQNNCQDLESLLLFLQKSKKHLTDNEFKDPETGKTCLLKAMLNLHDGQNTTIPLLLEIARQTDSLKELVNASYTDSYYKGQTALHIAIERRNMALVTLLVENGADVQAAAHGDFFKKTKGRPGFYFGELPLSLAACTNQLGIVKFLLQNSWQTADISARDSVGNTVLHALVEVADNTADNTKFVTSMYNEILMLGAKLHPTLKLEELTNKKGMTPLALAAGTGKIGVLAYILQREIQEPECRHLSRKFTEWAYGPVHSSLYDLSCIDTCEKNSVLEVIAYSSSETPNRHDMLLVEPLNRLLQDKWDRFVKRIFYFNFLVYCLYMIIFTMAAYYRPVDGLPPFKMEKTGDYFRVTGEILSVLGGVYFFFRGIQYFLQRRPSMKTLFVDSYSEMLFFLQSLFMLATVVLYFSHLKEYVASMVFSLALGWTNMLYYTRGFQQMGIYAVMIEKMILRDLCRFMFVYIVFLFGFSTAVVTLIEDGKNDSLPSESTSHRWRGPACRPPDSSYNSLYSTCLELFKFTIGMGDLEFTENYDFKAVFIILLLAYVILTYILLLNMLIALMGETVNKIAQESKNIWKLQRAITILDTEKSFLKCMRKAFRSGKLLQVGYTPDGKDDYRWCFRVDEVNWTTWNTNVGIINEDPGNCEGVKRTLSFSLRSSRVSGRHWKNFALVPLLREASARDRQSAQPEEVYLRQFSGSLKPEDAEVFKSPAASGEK

In the case of `C=C(C)C1CCC(C)=CC1c1c(O)cc(CCCCC)cc1O` (stereo not drawn) [CBD, 2-[3-methyl-6-(1-methylethenyl)-2-cyclohexen-1-yl]-5-pentyl-1,3-benzenediol], the effect on anandamide [1] is listed as “inhibit”, the “effects on immortalized human sebocytes” value [2] is listed as “lipostatic, anti-proliferative, and anti-inflammatory effects” and the “effect on human vanilloid receptor type 1 (VR1)” value [3] is listed as “stimulate”. For the same compound, the “CBD in the receptor phase (skin permeation)” value [4, 9] was < 278 ng/cm^2, the “CBD in the receptor phase (skin permeation), percent of applied dose” value [4, 9] was “less than 0.081%” and the “dermal deposition of CBD” value ([4]; 48-hour period) was 4.54 % of the applied dose. The dermis concentration ([4]; 48-hour period) was 8,408 ng/cm^2, the “dermis concentration per tissue” value ([4]; 48-hour period) was 1,933 ng/g of tissue and the “dermis concentration, volume equivalent” value ([4]; 48-hour period) was ~1,933 ng/mL. The “epidermal deposition of CBD” value ([4]; 48-hour period) was 13.17 % of the applied dose, the “effect on cardiac inflammation” value [5] was “attenuated cardiac inflammation” and the “subjects with circulating levels of CBD” value ([6]; Day 35 visit, 7 days after final dose) was “Nine”. The “study drug (CBD) plasma levels” value ([6]; throughout the study, 225 mg CBD per day) was “low”, the “mean pre-dose CBD level Day 21” value ([7]; Cohort 1: 1 mL QD) was 0.545 ng/mL and the “mean pre-dose CBD level Day 21” value ([7]; Cohort 2: 1 mL BID) was 0.770 ng/mL. For the same compound, the “mean CBD trough level Day 15” value ([7]; Cohort 2: 1 mL BID) was 0.781 ng/mL, the “mean pre-dose CBD level Day 21” value ([7]; Cohort 3: 3 mL QD) was 0.715 ng/mL and the “mean CBD trough level Day 15” value ([7]; Cohort 3: 3 mL QD) was 0.525 ng/mL. The “CBD trough level Day 15 of the outlier subject” value ([7]; Cohort 4, one subject) was 5.99 ng/mL, the “mean pre-dose CBD level Day 21” value ([7]; Cohort 4: 3 mL BID) was 1.553 ng/mL and the “mean CBD trough level Day 15” value ([7]; Cohort 4: 3 mL BID, all subjects) was 2.11 ng/mL. For the same compound, the “mean CBD trough level Day 15 without outlier subject” value ([7]; Cohort 4: 3 mL BID, one outlier excluded) was 1.16 ng/mL, the “Cmax Day 21 relative to Day 1 Cmax, mean” value ([7]; accumulation after 14 days dosing) was 1.92 times and the “effect on airway obstruction” value [8] was “reduced airway obstruction”.
